In brackets after ≈: the same amount, converted by molar mass. Like-named read-outs stand apart in the source and are kept apart here.
Columns and labels:
[1] = tested on: P. cepacia GIFU 518; assay: MIC, in vitro antibacterial activity (standard strains); assay type: cell-based; conditions: Burkholderia cepacia, GIFU518
[2] = tested on: Pseudomonas aeruginosa V-1; assay: as above; assay type: cell-based; conditions: Pseudomonas aeruginosa, V1
[3] = tested on: Yersinia enterocolitica IID 981; assay: as above; assay type: cell-based; conditions: Yersinia enterocolitica, IID981; 10^6 cells/ml; Gram -; read-out: MIC
[4] = tested on: P. aeruginosa IID 1210; assay: as above; assay type: cell-based, Pseudomonas aeruginosa; conditions: Pseudomonas aeruginosa, IID1210; 10^6 cells/ml; Gram -; read-out: MIC
[5] = tested on: S. aureus Smith; assay: as above; assay type: cell-based, Staphylococcus aureus; conditions: Staphylococcus aureus; 10^6 cells/ml; Gram +; read-out: MIC
[6] = tested on: P. aeruginosa IFO 12689; assay: as above; assay type: cell-based, Pseudomonas aeruginosa; conditions: Pseudomonas aeruginosa, IFO12689
[7] = tested on: Veillonella parvula KYA 10790; assay: as above; assay type: cell-based; conditions: Veillonella parvula, KYA10790; 10^6 cells/ml; Gram -; read-out: MIC
[8] = tested on: Shigella sonnei IID 969; assay: as above; assay type: cell-based; conditions: Shigella sonnei, IID969; 10^6 cells/ml; Gram -; read-out: MIC
Protocol: Minimal inhibitory concentrations (MICs) were determined in accordance with the method recommended by Japan Society of Chemotherapy.

[9] = tested on: S. aureus IID 670 (Terajima); assay: as above; assay type: cell-based, Staphylococcus aureus; conditions: Staphylococcus aureus, IID670; 10^6 cells/ml; Gram +; read-out: MIC
[10] = tested on: Klebsiella pneumoniae KY(GN)6445; assay: as above; assay type: cell-based; conditions: Klebsiella pneumoniae; 10^6 cells/ml; Gram -; read-out: MIC
[11] = tested on: Citrobacter freundii IID 976; assay: as above; assay type: cell-based; conditions: Citrobacter freundii, IID976; 10^6 cells/ml; Gram -; read-out: MIC
[12] = tested on: Eubacterium lentum GAI 5242; assay: as above; assay type: cell-based; conditions: Eggerthella lenta, GAI5242; 10^6 cells/ml; Gram +; read-out: MIC
[13] = tested on: Acinetobacter anitratus IID 876; assay: as above; assay type: cell-based; conditions: Acinetobacter calcoaceticus, IID876; 10^6 cells/ml; Gram -; read-out: MIC
[14] = tested on: E. faecalis IID 682; assay: as above; assay type: cell-based; conditions: Enterococcus faecalis, IID682; 10^6 cells/ml; Gram +; read-out: MIC
[15] = tested on: Salmonella enteritidis IID 604; assay: as above; assay type: cell-based; conditions: Salmonella enterica; 10^6 cells/ml; Gram -; read-out: MIC
[16] = tested on: Enterobacter cloacae IID 977; assay: as above; assay type: cell-based; conditions: Enterobacter cloacae, IID977; 10^6 cells/ml; Gram -; read-out: MIC
[17] = tested on: B. fragilis 25285; assay: as above; assay type: cell-based, Bacteroides fragilis; conditions: Bacteroides fragilis, 25285; 10^6 cells/ml; Gram -; read-out: MIC
[18] = tested on: P. maltophilia GIFU 2491; assay: as above; assay type: cell-based; conditions: Stenotrophomonas maltophilia, GIFU2491; 10^6 cells/ml; Gram -; read-out: MIC
[19] = tested on: Staphylococcus aureus 209 P; assay: as above; assay type: cell-based; conditions: Staphylococcus aureus, 209P; 10^6 cells/ml; Gram +; read-out: MIC
[20] = tested on: S. pyogenes IID 692; assay: as above; assay type: cell-based, Streptococcus pyogenes; conditions: Streptococcus pyogenes, IID692; 10^6 cells/ml; Gram +; read-out: MIC
[21] = tested on: Bacteroides fragilis GM 7000; assay: as above; assay type: cell-based; conditions: Bacteroides fragilis, GM7000; 10^6 cells/ml; Gram -; read-out: MIC
[22] = tested on: K. pneumoniae 1-220S; assay: as above; assay type: cell-based, Klebsiella pneumoniae; conditions: Klebsiella pneumoniae, 1220S; 10^6 cells/ml; Gram -; read-out: MIC
[23] = tested on: Propionibacterium acens 11828; assay: as above; assay type: cell-based; conditions: Propionibacterium, 11828; 10^6 cells/ml; Gram +; read-out: MIC
[24] = tested on: Escherichia coli NIHJ JC-2; assay: as above; assay type: cell-based; conditions: Escherichia coli, NIHJJC2; 10^6 cells/ml; Gram -; read-out: MIC
[25] = tested on: Morganella morganii IID 602; assay: as above; assay type: cell-based; conditions: Morganella morganii, IID602; 10^6 cells/ml; Gram -; read-out: MIC
[26] = tested on: Alcaligenes faecalis 0114002; assay: as above; assay type: cell-based; conditions: Alcaligenes faecalis, 0114002; 10^6 cells/ml; Gram -; read-out: MIC
[27] = tested on: Peptostreptococcus anaerobius KYA 27337; assay: as above; assay type: cell-based; conditions: Peptostreptococcus anaerobius, KYA27337; 10^6 cells/ml; Gram +; read-out: MIC
[28] = tested on: B. thetaiotaomicron (0661); assay: as above; assay type: cell-based; conditions: Bacteroides thetaiotaomicron; 10^6 cells/ml; Gram -; read-out: MIC
[29] = tested on: C. perfringens KYA 13123; assay: microbe, parasite or virus in culture; assay type: cell-based; conditions: Clostridium perfringens, KYA13123
[30] = tested on: Fusobacterium mortiferum 4249; assay: MIC, in vitro antibacterial activity (standard strains); assay type: cell-based; conditions: Fusobacterium mortiferum, 4249; 10^6 cells/ml; Gram -; read-out: MIC
[31] = tested on: S. pneumoniae IID 552; assay: as above; assay type: cell-based; conditions: Streptococcus pneumoniae, IID552; 10^6 cells/ml; Gram +; read-out: MIC
[32] = tested on: P. mirabilis IID 994; assay: as above; assay type: cell-based; conditions: Proteus mirabilis, IID994; 10^6 cells/ml; Gram -; read-out: MIC

| Compound | MIC [2] | MIC [3] | MIC [4] | MIC [5] | MIC [7] | MIC [8] | MIC [9] | MIC [10] | MIC [11] | MIC [12] | MIC [13] | MIC [14] | MIC [15] | MIC [16] | MIC [17] | MIC [18] | MIC [19] | MIC [20] | MIC [21] | MIC [22] | further results |
| --- | --- | --- | --- | --- | --- | --- | --- | --- | --- | --- | --- | --- | --- | --- | --- | --- | --- | --- | --- | --- | --- |
| C[C@H]1CN(c2c(F)cc3c(=O)c(C(=O)O)cn(CCF)c3c2Cl)C[C@H]1N (relative stereo) [Example 27, 7-(cis-3-Amino-4-methyl-1-pyrrolidinyl)-8-chloro-6-fluoro-1-(2-fluoroethyl)-1,4-dihydro-4-oxo-3-quinolinecarboxylic acid] | 0.39 µg/mL (≈ 1.01 µM) | 0.1 µg/mL (≈ 0.259 µM) | 6.25 µg/mL (≈ 16.2 µM) | 0.2 µg/mL (≈ 0.518 µM) | 0.39 µg/mL (≈ 1.01 µM) | 0.78 µg/mL (≈ 2.02 µM) | 0.39 µg/mL (≈ 1.01 µM) | 0.1 µg/mL (≈ 0.259 µM) | 0.1 µg/mL (≈ 0.259 µM) | 0.78 µg/mL (≈ 2.02 µM) | 1.56 µg/mL (≈ 4.04 µM) | 0.78 µg/mL (≈ 2.02 µM) | 0.1 µg/mL (≈ 0.259 µM) | 0.1 µg/mL (≈ 0.259 µM) | 1.56 µg/mL (≈ 4.04 µM) | 1.56 µg/mL (≈ 4.04 µM) | 0.2 µg/mL (≈ 0.518 µM) | 0.78 µg/mL (≈ 2.02 µM) | 1.56 µg/mL (≈ 4.04 µM) | 0.2 µg/mL (≈ 0.518 µM) | MIC [1]: 0.78 µg/mL (≈ 2.02 µM); MIC [6]: 3.13 µg/mL (≈ 8.11 µM); MIC [23]: 12.5 µg/mL (≈ 32.4 µM); MIC [24]: 0.05 µg/mL (≈ 0.13 µM); MIC [25]: 0.1 µg/mL (≈ 0.259 µM); MIC [26]: 0.78 µg/mL (≈ 2.02 µM); MIC [27]: 1.56 µg/mL (≈ 4.04 µM); MIC [28]: 3.13 µg/mL (≈ 8.11 µM); MIC [29]: 0.39 µg/mL (≈ 1.01 µM); MIC [30]: 1.56 µg/mL (≈ 4.04 µM); MIC [31]: 0.78 µg/mL (≈ 2.02 µM); MIC [32]: 0.1 µg/mL (≈ 0.259 µM) |
| C[C@@H]1CN(c2c(F)cc3c(=O)c(C(=O)O)cn(C4CC4)c3c2Br)C[C@H]1N (relative stereo) [Example 32, 7-(trans-3-Amino-4-methyl-1-pyrrolidinyl)-8-bromo-1-cyclopropyl-6-fluoro-1,4-dihydro-4-oxo-3-quinolinecarboxylic acid] | 0.2 µg/mL (≈ 0.471 µM) | 0.025 µg/mL (≈ 0.0589 µM) | 0.78 µg/mL (≈ 1.84 µM) | 0.025 µg/mL (≈ 0.0589 µM) | 0.1 µg/mL (≈ 0.236 µM) | 0.0063 µg/mL (≈ 0.0148 µM) | 0.05 µg/mL (≈ 0.118 µM) | 0.025 µg/mL (≈ 0.0589 µM) | 0.025 µg/mL (≈ 0.0589 µM) | 0.1 µg/mL (≈ 0.236 µM) | 0.025 µg/mL (≈ 0.0589 µM) | 0.2 µg/mL (≈ 0.471 µM) | 0.05 µg/mL (≈ 0.118 µM) | 0.05 µg/mL (≈ 0.118 µM) | 0.1 µg/mL (≈ 0.236 µM) | 0.05 µg/mL (≈ 0.118 µM) | 0.025 µg/mL (≈ 0.0589 µM) | 0.2 µg/mL (≈ 0.471 µM) | 0.1 µg/mL (≈ 0.236 µM) | 0.05 µg/mL (≈ 0.118 µM) | MIC ([6]; 10^6 cells/ml, Gram -, read-out: MIC): 0.39 µg/mL (≈ 0.919 µM); MIC [23]: 1.56 µg/mL (≈ 3.68 µM); MIC [24]: 0.0063 µg/mL (≈ 0.0148 µM); MIC [25]: 0.05 µg/mL (≈ 0.118 µM); MIC [26]: 0.1 µg/mL (≈ 0.236 µM); MIC [27]: 0.2 µg/mL (≈ 0.471 µM); MIC [28]: 0.2 µg/mL (≈ 0.471 µM); MIC [29]: 0.2 µg/mL (≈ 0.471 µM); MIC [30]: 0.2 µg/mL (≈ 0.471 µM); MIC [31]: 0.1 µg/mL (≈ 0.236 µM); MIC [32]: 0.05 µg/mL (≈ 0.118 µM) |
